Experimental data published in patent US9599603B2, “Methods and compositions for modulating adhesion and migration of cadherin expressing cells” (Case Western Reserve University, priority 2008, dated 2017).

Experiments:
Type in all cases: cell-based
[1] = target: T1, N-cadherin (Homo sapiens, UniProt P19022); assay: RGC neurite outgrowth on N-cadherin substrate (antagonist screen); details: ADH-1 vs vehicle control (FIG. 16A)
T1 construct: Fc (C); purchased R&D Systems
Experimental: Sterile 35 mm tissue culture dishes for retinal explants were coated with nitrocellulose in methanol and allowed to dry, before spreading 0.04-0.045 μg/plate of human N-cadherin-Fc (R&D Systems, Minneapolis, Minn.) across the center of each dish. Remaining binding sites on the nitrocellulose were blocked with 2% bovine serum albumin (BSA; Sigma, St. Louis, Mo.) in calcium/magnesium free phosphate buffer (CMF), and the dishes were rinsed with RPMI-1640 medium (HyClone, Logan, Utah). Cultures of retinal explants from embryonic day 8 chick were made as previously described in. Retinal explants were grown in RPMI-1640, 10% fetal bovine serum (HyClone), 2% chick serum (Invitrogen, Carlsbad, Calif.), 100 U/ml penicillin, 0.1 mg/ml streptomycin and 0.025 μg/ml amphotericin (Sigma). […] Neurite outgrowth was evaluated approximately 20 hours after plating. […] If outgrowth was affected, subsequent experiments determined the minimum concentration to affect outgrowth. […]
Neurite outgrowth was examined on a Nikon TE-200 inverted microscope (Tokyo, Japan), using a 10× objective. […] Subsequently measurements of neurite length and density were quantitated using the images. Length of the five longest neurites per explant was measured using MetaMorph version 6.3r4 (Molecular Devices, Downington Pa.). […] Control and experimental conditions were analyzed using the same thresholding parameters. […]

[2] = test system: Laminin; assay: LN-229 glioblastoma cell adhesion to Laminin substrate (specificity control); details: 1 mM ADH-1, compared to control
Experimental: (§1) Sterile 35 mm tissue culture dishes were coated with nitrocellulose in methanol and allowed to dry. Distinct spots, containing 50 ng of either purified Laminin (Sigma) or N-cadherin-Fc (R&D Systems), were made by spotting 10 μl of protein solution on the nitrocellulose-coated tissue culture dishes. Each dish contained two distinct spots of both Laminin and N-cadherin-Fc. After a 20-min incubation at room temperature, the protein solutions were aspirated. Remaining binding sites on the nitrocellulose were blocked with 2% BSA in PBS, and the dishes were rinsed with DMEM (Invitrogen).
(§2) LN-229 (American Type Culture Collection, Manassus, Va.) cells plated the previous day in 100 mm tissue culture dishes and grown to 80% confluence were released with 2 mM EDTA in CMF. 4×10^5 cells were added to each tissue culture dish in the presence of N-cadherin peptidomimetic small molecules, reconstituted in either DMSO or 0.3% cyclodextrin, and diluted in DMEM supplemented with 10% fetal bovine serum (HyClone). […]
(§3) Adherent cells were detected by phase contrast light microscopy using a 20× objective on a Nikon TE-200 inverted microscope. […] The number of adherent cells per image was determined using threshold parameters in MetaMorph that highlighted individual cells that spread on the substrate spots. […] Data from control and experimental conditions were evaluated using the same thresholding parameters. […]

[3] = target: T1, N-cadherin; assay: LN-229 glioblastoma cell adhesion to N-cadherin substrate; details: dose of 1 mM, 2 h adhesion
Experimental: as §1, §2, §3

T1 sequence (P19022 with tags, fused parts or gaps limits assumed): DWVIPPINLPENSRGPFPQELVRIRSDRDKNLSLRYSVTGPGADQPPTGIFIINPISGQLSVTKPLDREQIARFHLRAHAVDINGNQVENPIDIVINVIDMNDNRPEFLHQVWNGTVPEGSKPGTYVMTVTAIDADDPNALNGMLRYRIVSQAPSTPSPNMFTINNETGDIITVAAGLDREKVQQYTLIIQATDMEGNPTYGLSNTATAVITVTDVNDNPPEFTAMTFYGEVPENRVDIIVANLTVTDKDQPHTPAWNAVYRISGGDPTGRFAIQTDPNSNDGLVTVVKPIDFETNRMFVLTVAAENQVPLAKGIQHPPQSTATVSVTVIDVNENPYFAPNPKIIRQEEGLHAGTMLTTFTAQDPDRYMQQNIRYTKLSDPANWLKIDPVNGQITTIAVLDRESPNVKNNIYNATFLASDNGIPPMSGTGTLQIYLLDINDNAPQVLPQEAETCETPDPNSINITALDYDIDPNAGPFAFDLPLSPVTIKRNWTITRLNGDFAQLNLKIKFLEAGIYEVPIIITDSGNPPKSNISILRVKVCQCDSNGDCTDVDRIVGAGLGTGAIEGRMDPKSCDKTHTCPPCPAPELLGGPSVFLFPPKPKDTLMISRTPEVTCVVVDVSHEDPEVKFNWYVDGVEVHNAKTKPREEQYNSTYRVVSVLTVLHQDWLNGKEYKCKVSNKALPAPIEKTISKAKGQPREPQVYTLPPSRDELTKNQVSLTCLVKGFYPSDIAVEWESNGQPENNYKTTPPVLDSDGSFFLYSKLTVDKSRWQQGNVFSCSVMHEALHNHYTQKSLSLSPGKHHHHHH

- effect on RGC neurite outgrowth on a substrate of N-cadherin [1]: eliminate RGC neurite outgrowth
- adhesion of LN-229 cells to an N-cadherin substrate [3]: 46 % of control
SMILES: CC(=O)N[C@H]1CSSC[C@@H](C(N)=O)NC(=O)[C@H](C(C)C)NC(=O)[C@H](C)NC(=O)[C@H](Cc2c[nH]cn2)NC1=O [ADH-1, N-Ac-CHAVC-NH2]
- LN-229 adhesion to Laminin [2]: unaffected
